Patent publication US10167262B2, “Herbicidal substituted 3-arylpyrazoles” (FMC CORPORATION, priority 2014, dated 2019)
Read-outs that look alike come from different tables or passages of the source.

Assays:
Assay type in all cases: in vivo
[1] = test system: Italian ryegrass (Lolium multiflorum); experiment: Test C pre-/postemergence greenhouse test, plant response rating 0-100; conditions: Lolium multiflorum; for pest or weed control at 62 g/ha: 62 g ai/ha; for pest or weed control at 125 g/ha: 125 g ai/ha; for pest or weed control at 250 g/ha: 250 g ai/ha
How it was run: (§1)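 Formulated in solvent with surfactant, test chemicals were sprayed on seeded loam/sand pots and, concurrently, on young plants 2–18 cm tall. Evaluation: visual, versus controls, day 13–15.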

[2] = test system: blackgrass (Alopecurus myosuroides); experiment: as above; conditions: Alopecurus myosuroides; for pest or weed control at 62 g/ha: 62 g ai/ha; for pest or weed control at 125 g/ha: 125 g ai/ha; for pest or weed control at 250 g/ha: 250 g ai/ha
How it was run: as §1

[3] = test system: corn (Zea mays); experiment: as above; conditions: Zea mays; for Corn plant response rating (crop injury, 0 = no effect, 100 = complete kill) at 250 g/ha: 250 g ai/ha
How it was run: as §1

[4] = test system: galium (catchweed bedstraw, Galium aparine); experiment: as above; conditions: Galium; for pest or weed control at 62 g/ha: 62 g ai/ha; for pest or weed control at 125 g/ha: 125 g ai/ha; for pest or weed control at 250 g/ha: 250 g ai/ha
How it was run: as §1

[5] = test system: giant foxtail (Setaria faberii); experiment: as above; conditions: Setaria faberi; for pest or weed control at 62 g/ha: 62 g ai/ha; for pest or weed control at 125 g/ha: 125 g ai/ha; for pest or weed control at 250 g/ha: 250 g ai/ha
How it was run: as §1

[6] = test system: large (Lg) crabgrass (Digitaria sanguinalis); experiment: as above; conditions: Digitaria sanguinalis; for pest or weed control at 62 g/ha: 62 g ai/ha; for pest or weed control at 125 g/ha: 125 g ai/ha; for pest or weed control at 250 g/ha: 250 g ai/ha
How it was run: as §1

[7] = test system: pigweed (Amaranthus retroflexus); experiment: as above; conditions: Amaranthus retroflexus; for pest or weed control at 62 g/ha: 62 g ai/ha; for pest or weed control at 250 g/ha: 250 g ai/ha
How it was run: as §1

[8] = test system: ragweed (common ragweed, Ambrosia elatior); experiment: as above; conditions: Ambrosia artemisiifolia; for pest or weed control at 62 g/ha: 62 g ai/ha; for pest or weed control at 125 g/ha: 125 g ai/ha; for pest or weed control at 250 g/ha: 250 g ai/ha
How it was run: as §1

[9] = test system: soybean (Glycine max); experiment: as above; conditions: Glycine max; for plant injury at 62 g/ha: 62 g ai/ha; for plant injury at 125 g/ha: 125 g ai/ha; for plant injury at 250 g/ha: 250 g ai/ha
How it was run: as §1

[10] = test system: winter wheat (Triticum aestivum); experiment: as above; conditions: Triticum aestivum; for plant injury at 62 g/ha: 62 g ai/ha; for plant injury at 125 g/ha: 125 g ai/ha; for plant injury at 250 g/ha: 250 g ai/ha
How it was run: as §1

[11] = test system: yellow nutsedge (Cyperus esculentus); experiment: as above; conditions: Cyperus; for pest or weed control at 62 g/ha: 62 g ai/ha; for pest or weed control at 125 g/ha: 125 g ai/ha; for pest or weed control at 250 g/ha: 250 g ai/ha
How it was run: as §1

[12] = test system: chickweed (common chickweed, Stellaria media); experiment: Test C postemergence greenhouse test, plant response rating 0-100; conditions: Stellaria media, post-emergence
How it was run: (§2)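 Postemergence spray of formulated test chemicals on plants 2 to 18 cm tall (1- to 4-leaf stage) grown in peat/vermiculite medium. Greenhouse hold 13 to 15 days, then visual comparison with untreated controls on a 0-100 scale (0 no effect, 100 complete control); dash means no test result.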

[13] = test system: kochia (Kochia scoparia); experiment: as above; conditions: Bassia scoparia, post-emergence
How it was run: as §2

[14] = test system: wild oat (Avena fatua); experiment: as above; conditions: Avena fatua, post-emergence
How it was run: as §2

[15] = post-emergence, Postemergence, read-out: Plant response rating (0 to 100), Ryegrass, Italian
[16] = post-emergence, Postemergence, scale 0 to 100
[17] = pre-emergence, Preemergence, read-out: Plant response rating, Ryegrass, Italian
[18] = pre-emergence, Preemergence, 500 g ai/ha
[19] = post-emergence, Postemergence, read-out: Plant response rating (0 to 100), Blackgrass
[20] = pre-emergence, Preemergence, read-out: Plant response rating, Blackgrass
[21] = post-emergence, Postemergence, read-out: Plant response rating (0 to 100), Galium
[22] = pre-emergence, Preemergence, read-out: Plant response rating, Galium
[23] = post-emergence, Postemergence, read-out: Plant response rating (0 to 100), Foxtail, Giant
[24] = pre-emergence, Preemergence, read-out: Plant response rating, Foxtail, Giant
[25] = post-emergence, Postemergence, read-out: Plant response rating (0 to 100), Crabgrass, Large
[26] = pre-emergence, Preemergence, read-out: Plant response rating, Crabgrass, Large
[27] = post-emergence, Postemergence, read-out: Plant response rating (0 to 100), Ragweed
[28] = pre-emergence, Preemergence, read-out: Plant response rating, Ragweed
[29] = post-emergence, Postemergence, read-out: Plant response rating (0 to 100), Soybean
[30] = pre-emergence, Preemergence, read-out: Plant response rating, Soybean
[31] = post-emergence, Postemergence, read-out: Plant response rating (0 to 100), Wheat
[32] = pre-emergence, Preemergence, read-out: Plant response rating, Wheat
[33] = post-emergence, Postemergence, read-out: Plant response rating (0 to 100), Nutsedge, Yellow
[34] = pre-emergence, Preemergence, read-out: Plant response rating, Nutsedge, Yellow

## Cn1cc(C(=O)c2ccccc2)c(-c2cc(Cl)cc(Cl)c2)n1 [Compound 54, [3-(3,5-dichlorophenyl)-1-methyl-1H-pyrazol-4-yl]phenylmethanone]
[1]; [15]
  pest or weed control at 62 g/ha: 0%
  pest or weed control at 125 g/ha: 0%
[1]; [16]
  pest or weed control at 250 g/ha: 0%
[1]; [17]
  pest or weed control at 62 g/ha: 0%
  pest or weed control at 125 g/ha: 0%
[1]; pre-emergence, Preemergence
  pest or weed control at 250 g/ha: 0%
[1]; [18]
  pest or weed control at 500 g/ha: 0%
[2]; post-emergence, Postemergence, 31 g ai/ha, read-out: Plant response rating (0 to 100), Blackgrass
  pest or weed control at 31 g/ha: 0%
[2]; [19]
  pest or weed control at 62 g/ha: 0%
  pest or weed control at 125 g/ha: 0%
[2]; [16]
  pest or weed control at 250 g/ha: 0%
[2]; [20]
  pest or weed control at 62 g/ha: 0%
  pest or weed control at 125 g/ha: 0%
[2]; pre-emergence, Preemergence
  pest or weed control at 250 g/ha: 0%
[3]; post-emergence, Postemergence, 31 g ai/ha
  plant injury at 31 g/ha: 0%
[3]; post-emergence, Postemergence, 62 g ai/ha
  plant injury at 62 g/ha: 0%
[3]; post-emergence, Postemergence, 125 g ai/ha
  plant injury at 125 g/ha: 0%
[3]; [16]
  Corn plant response rating (crop injury, 0 = no effect, 100 = complete kill) at 250 g/ha: 0%
[3]; pre-emergence, Preemergence, 62 g ai/ha
  Corn plant response rating (crop injury, 0 = no effect, 100 = complete kill) at 62 g/ha: 0%
[3]; pre-emergence, Preemergence, 125 g ai/ha
  Corn plant response rating (crop injury, 0 = no effect, 100 = complete kill) at 125 g/ha: 0%
[3]; pre-emergence, Preemergence
  Corn plant response rating (crop injury, 0 = no effect, 100 = complete kill) at 250 g/ha: 10%
[3]; [18]
  Corn plant response rating (crop injury, 0 = no effect, 100 = complete kill) at 500 g/ha: 10%
[4]; post-emergence, Postemergence, 31 g ai/ha, read-out: Plant response rating (0 to 100), Galium
  pest or weed control at 31 g/ha: 0%
[4]; [21]
  pest or weed control at 62 g/ha: 0%
  pest or weed control at 125 g/ha: 0%
[4]; [16]
  pest or weed control at 250 g/ha: 5%
[4]; [22]
  pest or weed control at 62 g/ha: 0%
  pest or weed control at 125 g/ha: 0%
[4]; pre-emergence, Preemergence
  pest or weed control at 250 g/ha: 0%
[4]; [18]
  pest or weed control at 500 g/ha: 5%
[5]; post-emergence, Postemergence, 31 g ai/ha, read-out: Plant response rating (0 to 100), Foxtail, Giant
  pest or weed control at 31 g/ha: 0%
[5]; [23]
  pest or weed control at 62 g/ha: 0%
  pest or weed control at 125 g/ha: 5%
[5]; [16]
  pest or weed control at 250 g/ha: 5%
[5]; [24]
  pest or weed control at 62 g/ha: 0%
  pest or weed control at 125 g/ha: 0%
[5]; pre-emergence, Preemergence
  pest or weed control at 250 g/ha: 0%
[5]; [18]
  pest or weed control at 500 g/ha: 0%
[6]; post-emergence, Postemergence, 31 g ai/ha, read-out: Plant response rating (0 to 100), Crabgrass, Large
  pest or weed control at 31 g/ha: 0%
[6]; [25]
  pest or weed control at 62 g/ha: 0%
  pest or weed control at 125 g/ha: 0%
[6]; [16]
  pest or weed control at 250 g/ha: 0%
[6]; [26]
  pest or weed control at 62 g/ha: 0%
  pest or weed control at 125 g/ha: 0%
[6]; pre-emergence, Preemergence
  pest or weed control at 250 g/ha: 0%
[6]; [18]
  pest or weed control at 500 g/ha: 30%
[7]; post-emergence, Postemergence, read-out: Plant response rating (0 to 100), Pigweed
  pest or weed control at 62 g/ha: 98%
[7]; post-emergence, Postemergence, 125 g ai/ha, read-out: Plant response rating (0 to 100), Pigweed
  pest or weed control at 125 g/ha: 100%
[7]; [16]
  pest or weed control at 250 g/ha: 100%
[7]; pre-emergence, Preemergence, read-out: Plant response rating, Pigweed
  pest or weed control at 62 g/ha: 90%
[7]; pre-emergence, Preemergence
  pest or weed control at 250 g/ha: 95%
[7]; [18]
  pest or weed control at 500 g/ha: 95%
[8]; [27]
  pest or weed control at 62 g/ha: 0%
  pest or weed control at 125 g/ha: 0%
[8]; [16]
  pest or weed control at 250 g/ha: 20%
[8]; [28]
  pest or weed control at 62 g/ha: 5%
  pest or weed control at 125 g/ha: 15%
[8]; pre-emergence, Preemergence
  pest or weed control at 250 g/ha: 15%
[8]; [18]
  pest or weed control at 500 g/ha: 40%
[9]; [29]
  plant injury at 62 g/ha: 0%
  plant injury at 125 g/ha: 0%
[9]; [16]
  plant injury at 250 g/ha: 0%
[9]; [30]
  plant injury at 62 g/ha: 0%
  plant injury at 125 g/ha: 0%
[9]; pre-emergence, Preemergence
  plant injury at 250 g/ha: 0%
[9]; [18]
  plant injury at 500 g/ha: 0%
[10]; [31]
  plant injury at 62 g/ha: 0%
  plant injury at 125 g/ha: 0%
[10]; [16]
  plant injury at 250 g/ha: 0%
[10]; [32]
  plant injury at 62 g/ha: 0%
  plant injury at 125 g/ha: 0%
[10]; pre-emergence, Preemergence
  plant injury at 250 g/ha: 0%
[10]; [18]
  plant injury at 500 g/ha: 0%
[11]; [33]
  pest or weed control at 62 g/ha: 0%
  pest or weed control at 125 g/ha: 0%
[11]; [16]
  pest or weed control at 250 g/ha: 0%
[11]; [34]
  pest or weed control at 62 g/ha: 0%
  pest or weed control at 125 g/ha: 0%
[11]; pre-emergence, Preemergence
  pest or weed control at 250 g/ha: 0%
[11]; [18]
  pest or weed control at 500 g/ha: 25%
[12]; 31 g ai/ha
  pest or weed control at 31 g/ha: 0%
[12]; 62 g ai/ha
  pest or weed control at 62 g/ha: 90%
[12]; 125 g ai/ha
  pest or weed control at 125 g/ha: 100%
[12]; 250 g ai/ha, scale 0 to 100
  pest or weed control at 250 g/ha: 100%
[13]; 62 g ai/ha
  pest or weed control at 62 g/ha: 60%
[13]; 125 g ai/ha
  pest or weed control at 125 g/ha: 65%
[13]; 250 g ai/ha, scale 0 to 100
  pest or weed control at 250 g/ha: 70%
[14]; 62 g ai/ha
  pest or weed control at 62 g/ha: 0%
[14]; 125 g ai/ha
  pest or weed control at 125 g/ha: 0%
[14]; 250 g ai/ha, scale 0 to 100
  pest or weed control at 250 g/ha: 0%
